Like-named read-outs stand apart in the source and are kept apart here.
Experiments:
[1] = Pharmacokinetic study in male and female rats (single dose iv or po); format: in vivo, rat; details: for Cmax / bioavailability / Tmax: plasma; for Cmax: read-out: Cmax; for Tmax: read-out: Tmax (converted)
Experimental: Compound A(−), DAPD, and DXG were administrated as a single dose, either intravenously through the jugular vein at 10 mg/kg or orally at 20, 125, 500, 1000 or 2000 mg/kg. All rats were fasted for 12 hours prior to po dosing treatment. The vehicle used for both iv and po administrations was 0.1% carboxymethylcellulose and 0.1% Tween 80 in distilled water, acidified to pH 3.15 with 1N HCl. Blood samples were taken from rats at the times shown in the schedule below for all oral dosing. From a total of 10 rats for each administration, seven time points were taken for the intravenous through the jugular vein dosing (2, 5, 15, 30, 60, 120 and 240 min) and for the oral dosing (5-360 min) at 20 mg/kg, whereas two additional time points at 480 and 1440 min were taken for the oral doses of 125-2000 mg/kg. As a result, each time point was in quadruplicate, except for the 1440 minute time point when blood samples were taken through the jugular vein from all the rats prior to being euthanized.
Blood samples (1 ml) were collected from the rat tails into a vacutainer containing EDTA (3 ml) for both iv and po administrations. Plasma samples were prepared by centrifugation at 2000×g for 15 minutes at 4° C.
(§1) Plasma samples (diluted to 1 ml with water) were loaded onto the Abselut Nexus sorbent (#1210-3100) and drawn through under low vacuum (approximately 5′′ Hg). One milliliter of deionized water was added to the sorbent and drawn through under vacuum. The extraction column was dried for 1 minute using a high vacuum (>10′′ Hg). One milliliter of methanol was added to the Abselut Nexus column and the eluent was collected at 1-2 ml/min. The eluent was evaporated to dryness using a Speed Vac, and the samples were reconstituted in 120 μl H2O; 100 μl was used for injection.

[2] = Preliminary pharmacokinetic study in male adult rats; format: in vivo; details: rat; for half-life / AUC / Cmax: male, plasma; for AUC: read-out: AUC; for Cmax: read-out: Cmax
Experimental: The bioavailability of the compounds were evaluated in male adult rats dosed intravenously through the tail vein (5 mg/kg) and orally (20 mg/kg). The plasma samples were collected at 2, 5, 15, 30, 60, 90, 120 and 240 minutes after intravenous dosing and 5, 15, 30, 60, 90, 120, 240 and 360 minutes after oral dosing.
Blood samples (1 ml) were collected from the rat tails into a vacutainer containing EDTA (3 ml) for both iv and po administrations. Plasma samples were prepared by centrifugation at 2000 ×g for 15 minutes at 4° C.
as §1, with “(# 1210-3100 )” for “(#1210-3100)”

Nc1nc(NC2CC2)c2ncn([C@H]3CO[C@@H](CO)O3)c2n1 [Compound A (-), (−)-(2R,4R)-2-hydroxymethyl-4-(2′-amino-6′-cyclopropylamino-purine-9′-yl)-1,3-dioxolane]
AUG ([1]; female rat, iv 10 mg/kg): 328 µg·min/mL
T-half elimination ([1]; female rat, iv 10 mg/kg): 36.9 min
AUG ([1]; female rat, po 20 mg/kg): 602 µg·min/mL
T-half elimination ([1]; female rat, po 20 mg/kg): 57.1 min
AUG ([1]; male rat, iv 10 mg/kg): 304 µg·min/mL
T-half elimination ([1]; male rat, iv 10 mg/kg): 34.2 min
AUG ([1]; male rat, po 20 mg/kg): 600 µg·min/mL
T-half elimination ([1]; male rat, po 20 mg/kg): 72.5 min
Cmax ([1]; female rat, iv 10 mg/kg): 22900 ng/mL
bioavailability ([1]; female rat, po 20 mg/kg): 92%
Cmax ([1]; female rat, po 20 mg/kg): 5500 ng/mL
Tmax ([1]; female rat, po 20 mg/kg): 22.8 min
Cmax ([1]; male rat, iv 10 mg/kg): 19200 ng/mL
bioavailability ([1]; male rat, po 20 mg/kg): 99%
Cmax ([1]; male rat, po 20 mg/kg): 4600 ng/mL
Tmax ([1]; male rat, po 20 mg/kg): 23.4 min
half-life ([2]; iv 5 mg/kg): 22.2 min
AUC ([2]; iv 5 mg/kg): 4740 ng·h/mL
Cmax ([2]; iv 5 mg/kg): 14300 ng/mL
half-life ([2]; oral 20 mg/kg): 38.4 min
AUC ([2]; oral 20 mg/kg): 8640 ng·h/mL
Cmax ([2]; oral 20 mg/kg): 4200 ng/mL
Oral BA (%) ([2]; oral 20 mg/kg): 45.56%
